Converted amounts (≈) assume the structure as drawn. Marks after values point to notes of the source that are not given here.
Legend:
[1] = molecular target: porcine liver carboxylesterase (CES, EC 3.1.1.1) (Sus scrofa, UniProt Q29550); test: Porcine liver CES inhibition kinetics (Lineweaver-Burk); format: biochemical; conditions: mixed type inhibition; mean ± SEM
Procedure: To elucidate the inhibition mechanisms for active compounds, porcine liver CES residual activities were determined in the presence of 3 increasing concentrations of a test compound and 5–6 decreasing concentrations of the substrates. Test compounds were incubated with the enzymes at 25 °C for 5 min, followed by the addition of substrates. A parallel control was made for an assay of the rate of hydrolysis of the same concentrations of substrates in solutions with no inhibitor. Linear regression of 1/V versus 1/[S] double-reciprocal (Lineweaver-Burk) plots was used to determine the inhibition constants for the competitive component (Ki) and noncompetitive component (αKi).
Measurements were performed in a Bio-Rad Benchmark Plus microplate reader. Each experiment was performed in triplicate. Plots, linear regressions and values of IC50, were determined using Origin 6.1 for Windows, OriginLab (Northampton, MA, USA). Results were calculated using GraphPad Prism version 6.05 for Windows, GraphPad Software (La Jolla, CA, USA) and presented as mean ± SEM.

[2] = Ferric reducing antioxidant power (FRAP) assay; conditions: 20 μM; n.a. = inactive
Excerpt: The FRAP assay measures the ability of anti-oxidants to reduce the ferric 2,4,6-tripyridyl-s-triazine complex [Fe(TPTZ)2]^3+ to the intensely blue ferrous colored complex [Fe(TPTZ)2]^2+ with an absorption maximum at λ = 593 nm. The reducing ability of a compound is an indicator of its potential anti-oxidant activity. 2,4,6-Tris(pyridin-2-yl)-1,3,5-triazine (TPTZ), FeCl3·6H2O, Trolox and DMSO were obtained from Sigma-Aldrich Chemical Co (St. Louis, MO, USA).
The ferric reducing ability of the compounds was determined by the method in microplate adapted version described in [116]. The FRAP reagent was prepared by mixing acetate buffer (0.3 M, pH 3.6), TPTZ (10 mM in 40 mM HCl) and FeCl3·6H2O (20 mM in distilled water) in a ratio of 10:1:1 immediately before use. Compounds were dissolved in DMSO and tested in the concentration 20 μM. The solvent content in the reaction mixture was 4% (v/v). The test compounds (10 μL of 0.5 mM solution) were added to the FRAP reagent solution (240 μL) and mixed thoroughly. The reaction was carried out at 37 °C in the dark; the incubation time was 1 h. The absorbance at 600 nm was monitored spectrophotometrically by a FLUOStar OPTIMA microplate reader (BMG Labtech, Ortenberg, Germany) at 37 °C. Trolox was used as a reference compound. Values were obtained from four replicates of each sample in three independent experiments.
The ferric reducing ability of compounds was expressed as TE units (antioxidant activity in Trolox equivalent), the values calculated as the ratio of the concentrations of Trolox and the test compound resulting in the same effect. The calculations were carried out using Origin 6.1 for Windows. Results were presented as mean ± SEM, calculated using GraphPad Prism version 6.05 for Windows, GraphPad Software.

[3] = test system: Candida albicans RCPF Y 401/NCTC 885/653; test: Antifungal susceptibility testing, C. albicans; conditions: NCTC885, read-out: MIC for fungi strains inhibition, C. albicans
Excerpt: The solvent was DMSO. […] In each test, a growth control and a sterility control were used.

Vero cells = test: Live cell visualization (fluorescent staining, confocal microscopy); format: cell-based, African green monkey; conditions: 1 × 10^–4 M, laser excitation
Excerpt: Tartrazine, having 4-(4-sulfonatophenylazo)-5-pyrazolone moiety, is widely used as a synthetic lemon-yellow azo dye for food coloring. Many reports about the pyrazolone-based dyes for different purposes have been published to date. However, there are no reports describing 4-AHPs’ use for the biovisualization of living cells. In this work, we studied the potential of compounds 5f, 6a, 9a for the fluorescent visualization of the Vero cell structure (African green monkey kidney epithelium). Cells stained with the compound at a concentration of 1 × 10^–4 M in DMEM were examined using an LSM-710 laser scanning confocal microscope.
The suitability of substances for fluorescent imaging of cellular structures was studied on Vero cell culture (African green monkey kidney epithelium) and CHO (Chinese hamster ovary). The culture is supported in DMEM (Gibco, Uoltem, USA) with addition of 10% fetal bovine serum (Gibco, Uoltem, USA) and a mixture of gentamicin and streptomycin (Biolot, Moscow, Russia).
The cells were cultivated into specialized Petri dishes with a glass bottom for staining. Staining was carried out with substances at a concentration of 1 × 10^–4 M. For that, the solution of substances was preliminarily diluted with DMSO (Biolot, Moscow, Russia) to a concentration of 1 × 10^–3 M and then with DMEM to the required concentration. Incubation with the substance was carried out for half an hour in an incubator, in the dark at a temperature of 37 °C. […]
The stained cells with the substance were examined using an LSM-710 laser scanning confocal microscope (Carl Zeiss, Oberkochen, Germany). […] Fluorescence was excited by lasers with different wavelengths and registered in lambda mode. This mode gets to collect a full spectrum image by analyzing the intensity of fluorescence in different ranges. […] Taking images in this mode also makes it possible to obtain the fluorescence spectrum of the test substance in the cell. However, a confocal microscope is not a spectrofluorometer and the resulting spectra can have very poor quality, especially at low fluorescence intensity.

Sprague-Dawley rats = test: Carrageenan-induced paw edema model (anti-inflammatory activity); format: in vivo; conditions: ip
Procedure: Anti-inflammatory activity was studied in Sprague-Dawley rats (3 male and 3 female animals per group) by using the common carrageenan-induced paw edema model. The investigated compounds in 1% starch mucilage were intraperitoneally administered at the corresponding dose to a treated group of rodents 30 min before the injection of 0.1 mL of freshly prepared 1% carrageenan (λ-carrageenan, type IV; Sigma Aldrich, an affiliate of Merck KGaA, Darmstadt, Germany) solution in the right hind paw plantar surface. The negative control group was treated with 1% starch mucilage solution only. Diclofenac sodium (10 mg/kg in 1% starch mucilage solution) was used as a reference drug. Paw volumes were measured oncometrically with water plethysmometer (TSE Volume Meter, Bad Homburg, Germany) before carrageenan administration (“zero time”) and at 1st, 3rd, 5th and 24th h after its injection. An anti-inflammatory activity of the sample at a certain time point was calculated in two steps. First, the percentage of an edema increment (i.e., relative volume change for the inflamed paw vs. “zero time” value) both in the negative control group (Pc) and in the treated group (Ptr) were calculated for this time point for each animal. The difference between treated and control group was considered significant at p < 0.05. Then, for such cases, swelling inhibition was calculated according to the formula: 100% (Pc − Ptr)/Pc and considered as a measure of anti-inflammatory activity of the sample.

Sequence of porcine liver carboxylesterase (CES, EC 3.1.1.1) (Q29550 19-566): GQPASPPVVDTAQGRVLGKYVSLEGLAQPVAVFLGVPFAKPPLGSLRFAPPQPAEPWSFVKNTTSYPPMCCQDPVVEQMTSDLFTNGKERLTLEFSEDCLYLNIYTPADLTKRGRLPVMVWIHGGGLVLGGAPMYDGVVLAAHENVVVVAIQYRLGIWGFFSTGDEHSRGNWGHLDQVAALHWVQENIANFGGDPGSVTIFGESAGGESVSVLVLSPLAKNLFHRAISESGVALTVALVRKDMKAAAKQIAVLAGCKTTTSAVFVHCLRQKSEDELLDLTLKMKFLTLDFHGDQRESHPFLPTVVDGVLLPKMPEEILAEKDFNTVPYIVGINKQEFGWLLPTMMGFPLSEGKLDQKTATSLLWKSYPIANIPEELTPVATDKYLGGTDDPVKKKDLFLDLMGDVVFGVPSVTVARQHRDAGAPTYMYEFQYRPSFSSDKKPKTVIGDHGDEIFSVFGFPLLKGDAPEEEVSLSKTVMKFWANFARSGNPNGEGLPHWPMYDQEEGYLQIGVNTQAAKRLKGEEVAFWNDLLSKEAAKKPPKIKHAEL

| Compound | FRAP (TE, antioxidant activity in Trolox equivalents) [2] | MIC [3] [µg/mL] | further results |
| --- | --- | --- | --- |
| O=C1NN=C(C(F)(F)F)/C1=N/Nc1ccccc1 [5a, (Z)-4-(2-Phenylhydrazinylidene)-5-(trifluoromethyl)-2,4-dihydro-3H-pyrazol-3-one] | 0.09 ± 0.01 |  | αKi (non-competitive inhibition constant), CES [1]: 0.255 ± 0.013 µM |
| Cc1ccc(N/N=C2\C(=O)NN=C2C(F)(F)F)cc1 [5b, (4Z)-4-[2-(4-Methylphenyl)hydrazinylidene]-5-(trifluoromethyl)-2,4-dihydro-3H-pyrazol-3-one] | 0.05 ± 0.02 | 200 (≈ 740 µM) |  |
| O=C1NN=C(C(F)(F)F)/C1=N/Nc1ccc(Br)cc1 [5c, (4Z)-4-[2-(4-Bromophenyl)hydrazinylidene]-5-(trifluoromethyl)-2,4-dihydro-3H-pyrazol-3-one] |  | > 200 |  |
| Cc1ccc(N/N=C2\C(=O)N(C)N=C2C(F)(F)F)cc1 [5d, (4Z)-2-Methyl-4-[2-(4-methylphenyl)hydrazinylidene]-5-(trifluoromethyl)-2,4-dihydro-3H-pyrazol-3-one] |  | > 200 | αKi (non-competitive inhibition constant), CES [1]: 3.98 ± 0.31 µM |
| Cc1ccc(N/N=C2\C(=O)N(c3ccccc3)N=C2C(F)(F)F)cc1 [5f, (4Z)-4-[2-(4-Methylphenyl)hydrazinylidene]-2-phenyl-5-(trifluoromethyl)-2,4-dihydro-3H-pyrazol-3-one] |  | 200 (≈ 578 µM) | αKi (non-competitive inhibition constant), CES [1]: 0.735 ± 0.007 µM; acute phototoxicity during cell visualization (Vero cells): No acute phototoxicity; Inhibition of Paw Edema Development Comparing to Control, after 5 h (Sprague-Dawley rats; dose 15 mg/kg, n.a. = inactive): 30.9 * % |
| CS(=O)(=O)c1ccc(N/N=C2\C(=O)N(c3ccccc3)N=C2C(F)(F)F)cc1 [5m, (4Z)-4-(2-[4-(Methylsulfonyl)phenyl]hydrazinylidene)-2-phenyl-5-(trifluoromethyl)-2,4-dihydro-3H-pyrazol-3-one] |  | > 200 | Inhibition of Paw Edema Development Comparing to Control, after 1 h (Sprague-Dawley rats; dose 25 mg/kg): 49.0 ** %; Inhibition of Paw Edema Development Comparing to Control, after 3 h (Sprague-Dawley rats; dose 25 mg/kg): 44.3 * %; Inhibition of Paw Edema Development Comparing to Control, after 5 h (Sprague-Dawley rats; dose 25 mg/kg): 35.3 * % |
| Cc1ccc(N/N=C2\C(=O)N(c3ccc(S(N)(=O)=O)cc3)N=C2C(F)(F)F)cc1 [5p, (4Z)-2-[4-(Aminosulfonyl)phenyl]-4-[2-(4-methylphenyl)hydrazinylidene]-5-(trifluoromethyl)-2,4-dihydro-3H-pyrazol-3-one] |  | > 200 |  |
| Cc1ccc(N/N=C2\C(=O)NN=C2C(F)(F)C(F)(F)F)cc1 [6a, (4Z)-4-[2-(4-Methylphenyl)hydrazinylidene]-5-(pentafluoroethyl)-2,4-dihydro-3H-pyrazol-3-one] | 0.15 ± 0.02 |  | acute phototoxicity during cell visualization (Vero cells): No acute phototoxicity |
| Cc1ccc(N/N=C2\C(=O)NN=C2C(F)(F)C(F)(F)C(F)(F)F)cc1 [7a, (4Z)-5-(Heptafluoropropyl)-4-[2-(4-methylphenyl)hydrazinylidene]-2,4-dihydro-3H-pyrazol-3-one] |  | > 200 |  |
| CC1=NNC(=O)/C1=N\Nc1ccc(C)cc1 [9a, (4Z)-5-Methyl-4-[2-(4-methylphenyl)hydrazinylidene]-2,4-dihydro-3H-pyrazol-3-one] | 0.51 ± 0.01 |  | acute phototoxicity during cell visualization (Vero cells): No acute phototoxicity |
| CC1=NN(c2ccccc2)C(=O)/C1=N\Nc1ccc(C)cc1 [9b, (4Z)-5-Methyl-4-[2-(4-methylphenyl)hydrazinylidene]-2-phenyl-2,4-dihydro-3H-pyrazol-3-one] | 0.11 ± 0.01 | > 200 |  |

From PMC9821843, “Powerful Potential of Polyfluoroalkyl-Containing 4-Arylhydrazinylidenepyrazol-3-ones for Pharmaceuticals” (Molecules, 2022)
